In patent publication US20240270748A1 (Merck Patent GmbH, priority 2021, published 2024) one finds IC50 data, which are given here for 25 compounds.

As a reminder, the IC50 is the midpoint of a concentration-inhibition curve.

Bounds are passed on as bounds.

The subject of the first test is YAP-TEAD interaction. The experiment in a line: SK-HEP-1 reporter assay (8xTEAD responsive elements driving NanoLuc luciferase). As to conditions: Homo sapiens, SK-HEP1, SK-HEP-1 reporter assay; class symbols. The format is cell-based. As to the method: To identify inhibitors of YAP-TEAD interaction, 8×TEAD responsive elements driving the NanoLuc® luciferase gene were stably integrated into SK-HEP-1 cells (ECACC #: 91091816).
For the assay, cells were treated in duplicates with the test compounds in a 10-point dose, with the top concentration starting at 30 μM (final concentration in assay). After a 24 hour incubation at 37° C., 95% rH, and 5% CO2, a luciferase substrate/lysis reagent mix (NanoGlo™, Promega) was added to the cells, allowing the quantification of cellular luciferase activity.
Cell Media: The cells were cultured in the following media: MEM, +10% FBS, +1× GlutaMAX, +1 mM Sodium-Pyruvate, +100 μM Non-essential amino acids, +0.1 mg/ml Hygromycin. The media used for the assay was: MEM (w/o Phenol Red), +10% FBS, +1× GlutaMAX, +1 mM Sodium-Pyruvate, +100 μM Non-essential amino acids, +0.5% Pen/Strep
Reagents: The reagents used are listed below:
Cell culture: The cells were examined using an inverted microscope to check for health and cell density. To dissociate adherent cells, the monolayer of cells was washed once with pre-warmed PBS. After removing the PBS, 3 ml pre-warmed Accutase® was added to a F75 flask, dispersed evenly and the flask was allowed to sit in incubator for ˜4-5 minutes.
When a single cell suspension was obtained, 7 ml of prewarmed growth media was added and resuspended with the cells. The cell suspension was transferred to a sterile 15 ml conical centrifuge tube, and spun for 5 min at 300×g, RT. The supernatant was discarded and the pellet was resuspended in 10 ml of pre-warmed growth media.
The total cell count was determined, and 20 μl of the desired cell number was added to each well of a 384 well plate using a Multidrop Combi. The plates were then incubated for 24 hours at 37° C., 95% rH, and 5% C02.
Compound treatment: 24 hours after seeding, the cells were treated with compounds.
A 1:333 dilution of compounds, diluted in DMSO, was made to get a final concentration of 0.3% DMSO per well. To transfer the compounds to the assay plate, […] was shot from Labcyte low dead volume plates to the cell plates containing 20 μl media/well with the ECHO 555 liquid handling system.
After treatment, the cells were fed with 20 μl fresh pre-warmed assay media using a Multidrop combi.
The assay plates were then incubated for another 24 h at 37° C., 95% rH, and 5% CO2.
Luciferase readout: 24 h after treatment, the plates were taken out of the incubator and were allowed to equilibrate to RT. 30 μl of NanoGlo® reagent was added to the plates in the dark. Plates were shaken for 20 min on a Teleshake (˜1500 rpm) in the dark. The luminescence was then measured using an EnVision microplate reader. The IC50 values were generated using Genedata Screener®.
(In general: Reporter assays use an easily measured gene product as a stand-in for the process of interest.)
`Cn1cc2c3cc(C(=O)N=S(C)(=O)CCN)ccc3n(-c3ccc(C(F)(F)F)cc3)c2n1` (stereo not shown) [Example C36, N-[(2-aminoethyl) (methyl)οxο-λ^6-sulfanylidene]-2-methyl-8-[4-(trifluoromethyl)phenyl]-2H,8H-pyrazolo[3,4-b]indole-5-carboxamide] gave an IC50 of 0.1 to 10 µM.

In turn, `Cn1cc2c3cc(C4CC(n5ccnn5)=NO4)ccc3n(-c3ccc(C(F)(F)F)cc3)c2n1` (stereo not shown) [Example C37, 1-(5-{2-methyl-8-[4-(trifluoromethyl)phenyl]-2H,8H-pyrazolo[3,4-b]indol-5-yl}-4,5-dihydro-1,2-oxazol-3-yl)-1H-1,2,3-triazole] showed an IC50 above 10 µM.

For `Cn1cc2c3cc(C4CC(n5nccn5)=NO4)ccc3n(-c3ccc(C(F)(F)F)cc3)c2n1` (stereo not shown) [Example C38, 2-(5-{2-methyl-8-[4-(trifluoromethyl)phenyl]-2H,8H-pyrazolo[3,4-b]indol-5-yl}-4,5-dihydro-1,2-oxazol-3-yl)-2H-1,2,3-triazole], the IC50 is above 10 µM.

In the case of `Cn1cc2c3cc(S(=O)(=O)O)ccc3n(-c3ccc(C(F)(F)F)cc3)c2n1` [Example C43, 2-methyl-8-[4-(trifluoromethyl)phenyl]-2H,8H-pyrazolo[3,4-b]indole-5-sulfonic acid], the IC50 was 0.1 to 10 µM.

As to `Cc1snc2c1c1cc(C(=O)N3CC[C@H](O)C3)ccc1n2-c1ccc(C(F)(F)F)cc1` [Example C49, (3S)-1-{3-methyl-8-[4-(trifluoromethyl)phenyl]-8H-[1,2]thiazolo [3,4-b]indole-5-carbonyl}pyrrolidin-3-ol], the IC50 is 0.1 to 10 µM.

As for `Cc1snc2c1c1cc(C(=O)N3CC[C@@H](O)C3)ccc1n2-c1ccc(C(F)(F)F)cc1` [Example C54, (3R)-1-{3-methyl-8-[4-(trifluoro-methyl)phenyl]-8H-[1,2]thiazolo[3,4-b]indole-5-carbonyl}pyrrolidin-3-ol], the IC50 was 0.1 to 10 µM.

`Cc1snc2c1c1cc(C(=O)NC[C@H](O)C(F)(F)F)ccc1n2-c1ccc(C(F)(F)F)cc1` [Example C55, 3-methyl-N-[(2S)-3,3,3-trifluoro-2-hydroxypropyl]-8-[4-(trifluoro-methyl)phenyl]-8H-[1,2]thiazolo[3,4-b]indole-5-carboxamide] displayed an IC50 of 0.1 to 10 µM.

In turn, `CNCCC(C)NC(=O)c1ccc2c(c1)c1cn(C)nc1n2-c1ccc(C(F)(F)F)cc1` (stereo not shown) [Example C58, 2-methyl-N-[4-(methylamino)butan-2-yl]-8-[4-(trifluoromethyl)phenyl]-2H,8H-pyrazolo[3,4-b]indole-5-carboxamide] registered a concentration for half-maximal inhibition (IC50) of 0.1 to 10 µM.

Take `Cn1cc2c3cc(C(=O)N4CC(C#N)C4)ccc3n(-c3ccc(C(F)(F)F)cc3)c2n1` [Example C59, 1-{2-methyl-8-[4-(trifluoromethyl)phenyl]-2H,8H-pyrazolo[3,4-b]indole-5-carbonyl}azetidine-3-carbonitrile]: the IC50 was 0.1 to 10 µM.

In turn, `Cn1cc2c3cc(C(=O)N4CC(CF)C4)ccc3n(-c3ccc(C(F)(F)F)cc3)c2n1` [Example C60, 3-(fluoromethyl)-1-{2-methyl-8-[4-(trifluoromethyl)phenyl]-2H,8H-pyrazolo[3,4-b]indole-5-carbonyl}azetidine] showed an IC50 of 0.1 to 10 µM.

`Cc1snc2c1c1cc(C(=O)N[C@H](CO)c3ccccn3)ccc1n2-c1ccc(C(F)(F)F)cc1` [Example C69, N-[(1S)-2-hydroxy-1-(pyridin-2-yl)ethyl]-3-methyl-8-[4-(trifluoromethyl)phenyl]-8H-[1,2]thiazolo[3,4-b]indole-5-carboxamide] showed an IC50 of 0.1 to 10 µM.

With `CCCNS(=O)(=O)c1ccc2c(c1)c1cn(C)nc1n2-c1ccc(C(F)(F)F)cc1` [Example C71, 2-methyl-N-propyl-8-[4-(trifluoromethyl)phenyl]-2H,8H-pyrazolo[3,4-b]indole-5-sulfonamide], the IC50 lay in the range of 0.1 to 10 µM.

In turn, `Cc1snc2c1c1cc(C(=O)NCc3cnccn3)ccc1n2-c1ccc(C(F)(F)F)cc1` [Example C78, 3-methyl-N-[(pyrazin-2-yl)methyl]-8-[4-(trifluoromethyl)phenyl]-8H-[1,2]thiazolo[3,4-b]indole-5-carboxamide] had a 50% inhibitory concentration (IC50) of 0.01 to 0.1 µM.

The compound `Cc1snc2c1c1cc(C(=O)NCc3nccn3C)ccc1n2-c1ccc(C(F)(F)F)cc1` [Example C79, 3-methyl-N-[(1-methyl-1H-imidazol-2-yl)methyl]-8-[4-(trifluoromethyl)phenyl]-8H-[1,2]thiazolo[3,4-b]indole-5-carboxamide] had an IC50 of 0.1 to 10 µM.

In turn, `Cc1snc2c1c1cc(C(=O)NC3(CO)CCC3)ccc1n2-c1ccc(C(F)(F)F)cc1` [Example C82, N-[1-(hydroxymethyl)cyclobutyl]-3-methyl-8-[4-(trifluoromethyl)phenyl]-8H-[1,2]thiazolo[3,4-b]indole-5-carboxamide] gave an IC50 of 0.1 to 10 µM.

Take `Cc1snc2c1c1cc(C(=O)N[C@@H](CO)C(C)C)ccc1n2-c1ccc(C(F)(F)F)cc1` [Example C92, N-[(2R)-1-hydroxy-3-methylbutan-2-yl]-3-methyl-8-[4-(trifluoromethyl)phenyl]-8H-[1,2]thiazolo[3,4-b]indole-5-carboxamide]: the IC50 was 0.01 to 0.1 µM.

`Cc1snc2c1c1cc(C(=O)N[C@H](CO)C3CCC3)ccc1n2-c1ccc(C(F)(F)F)cc1` [Example C100, N-[(1S)-1-cyclobutyl-2-hydroxyethyl]-3-methyl-8-[4-(trifluoromethyl)phenyl]-8H-[1,2]thiazolo[3,4-b]indole-5-carboxamide]: the concentration for half-maximal inhibition (IC50) is 0.1 to 10 µM.

For the compound `C[C@@H](NC(=O)c1ccc2c(c1)c1cn(C)nc1n2-c1ccc(C(F)(F)F)cc1)c1ccccn1` [Example C107, 2-methyl-N-[(1R)-1-(pyridin-2-yl)ethyl]-8-[4-(trifluoromethyl)phenyl]-2H,8H-pyrazolo[3,4-b]indole-5-carboxamide], the IC50 is 0.1 to 10 µM.

Take `COCCNC(=O)c1ccc2c(n1)c1cn(C)nc1n2-c1ccc(C(F)(F)F)cc1` [Example C112, N-(2-methoxyethyl)-4-methyl-7-[4-(trifluoromethyl)phenyl]-4,5,7,12-tetraazatricyclo [6.4.0.0^2,6]dodeca-1(8),2,5,9,11-pentaene-11-carboxamide]: the IC50 lay within 0.1 to 10 µM.

For the compound `Cn1cc2c3nc(C(=O)NCCO)ccc3n(-c3ccc(C(F)(F)F)cc3)c2n1` [Example C113, N-(2-hydroxyethyl)-4-methyl-7-[4-(trifluoromethyl)phenyl]-4,5,7,12-tetraazatricyclo [6.4.0.0^2,6]dodeca-1(8),2,5,9,11-pentaene-11-carboxamide], the IC50 was in the range of 0.1 to 10 µM.

As for `C[C@@H](NC(=O)c1ccc2c(n1)c1cn(C)nc1n2-c1ccc(C(F)(F)F)cc1)c1ccccn1` [Example C114, 4-methyl-N-[(1R)-1-(pyridin-2-yl)ethyl]-7-[4-(trifluoromethyl)phenyl]-4,5,7,12-tetraazatricyclo[6.4.0.0^2,6]dodeca-1(8),2,5,9,11-pentaene-11-carboxamide], the IC50 is 0.1 to 10 µM.

For the compound `Cn1cc2c3nc(CO)ccc3n(-c3ccc(C(F)(F)F)cc3)c2n1` [Example C116, {4-methyl-7-[4-(trifluoromethyl)phenyl]-4,5,7,12-tetraazatricyclo [6.4.0.0^2,6]dodeca-1(8),2,5,9,11-pentaen-11-yl}methanol], the IC50 was in the range of 0.1 to 10 µM.

Staying with this test, now noted: Homo sapiens, SK-HEP1, SK-HEP-1 reporter assay; n.d. = value not detectable below threshold given in parentheses; ND = not determinable within the entire range.
Regarding `Cn1nnc2c3cc(S(=O)(=O)O)ccc3n(-c3ccc(C(F)(F)F)cc3)c21` [Example C44, 3-methyl-4-[4-(trifluoromethyl)phenyl]-3H,4H-[1,2,3]triazolo[4,5-b]indole-7-sulfonic acid], the IC50 was above 30 µM.

As for `Cn1cc2c3cc(S(=O)(=O)N4CCCC4)ccc3n(-c3ccc(C(F)(F)F)cc3)c2n1` [Example C84, 1-({2-methyl-8-[4-(trifluoromethyl)phenyl]-2H,8H-pyrazolo[3,4-b]indol-5-yl}sulfonyl)pyrrolidine], the 50% inhibitory concentration (IC50) was above 10 µM.

For the compound `Cn1cc2c3nc(C(=O)N=S(C)(=O)CCO)ccc3n(-c3ccc(C(F)(F)F)cc3)c2n1` (stereo not shown) [Example C109, N-[(2-hydroxyethyl)(methyl)oxo-λ^6-sulfanylidene]-4-methyl-7-[4-(trifluoromethyl)phenyl]-4,5,7,12-tetraazatricyclo [6.4.0.0^2,6]dodeca-1(8),2,5,9,11-pentaene-11-carboxamide], the IC50 is above 30 µM.
